Source: patent publication US9597407B2, “Targeted antimicrobial moieties” (C3 Jian, Inc., priority 2009, dated 2017)
Ends that are not written are not given here.

Tested on: microorganisms
Assay: Morphology, biofilm and growth disruption by peptides (Table 5)
Type: cell-based
Design: key: A: Peptide aggregates; B: Less hyphal formation; Clumps; Diffuse clumps and small polyps; F: Diffuse growth; H: Thin; I: Growth inhibition; Microcolony formation; Rippled; Small polyps; Thick; W: Halo formation on top, microlonies on bottom
Description: In certain embodiments peptides that induce alterations in phenotype or other biological activities can also be used as antimicrobial effector moieties.

“PF-455 (MARNDDDIKKIKGTLGQSPEVYGERKLPYT; Peptide with targeting and/or antimicrobial activity)” was tested, and the “Organism, effect (morphology, biofilm and growth disruption)” value (S. pneumoniae) was “S. pneumoniae (A)”.
For “PF-468 (EDNKDKKDKKDK; Peptide with targeting and/or antimicrobial activity)”, the “Organism, effect (morphology, biofilm and growth disruption)” value (S. pneumoniae) was “S. pneumoniae (H)”.
In the case of “PF-485 (KNSMSRSIALID; Peptide with targeting and/or antimicrobial activity)”, the “Organism, effect (morphology, biofilm and growth disruption)” value (S. pneumoniae) is reported as “S. pneumoniae (A)”.
“PF-516 (ASKQASKQASKQASKQ; Peptide with targeting and/or antimicrobial activity)” was tested, and the “Organism, effect (morphology, biofilm and growth disruption)” value (S. pneumoniae) was “S. pneumoniae (H)”.
For “PF-532 (KFIYKYKLSFIIYKILIQTLTMELNK; Peptide with targeting and/or antimicrobial activity)”, the “Organism, effect (morphology, biofilm and growth disruption)” value (E. coli) was “E. coli (C)”, the “Organism, effect (morphology, biofilm and growth disruption)” value (E. faecalis) was “E. faecalis (C)” and the “Organism, effect (morphology, biofilm and growth disruption)” value (MRSA) was “MRSA (C)”. The “Organism, effect (morphology, biofilm and growth disruption)” value (S. pneumoniae) was “S. pneumoniae (C)”.
PF-534 (KYFHLFYHNIIHYSKQHLSLKVDFKN-NH2) was tested, and the “Organism, effect (morphology, biofilm and growth disruption)” value (E. coli) was “E. coli (R)”, the “Organism, effect (morphology, biofilm and growth disruption)” value (E. faecalis) was “E. faecalis (C)” and the “Organism, effect (morphology, biofilm and growth disruption)” value (MRSA) was “MRSA (C)”. The “Organism, effect (morphology, biofilm and growth disruption)” value (S. epidermidis) was “S. epidermidis (C)” and the “Organism, effect (morphology, biofilm and growth disruption)” value (S. pneumoniae) was “S. pneumoniae (R)”.
For “PF-535 (NIKTRKRALKIIKQHQRSK; Peptide with targeting and/or antimicrobial activity)”, the “Organism, effect (morphology, biofilm and growth disruption)” value (P. aeruginosa) was “P. aeruginosa (H)” and the “Organism, effect (morphology, biofilm and growth disruption)” value (S. pneumoniae) was “S. pneumoniae (H)”.
“PF-536 (MEPIPHIMIIANQIGIIIEKA; Peptide with targeting and/or antimicrobial activity)” was tested, and the “Organism, effect (morphology, biofilm and growth disruption)” value (E. coli) was “E. coli (R)”, the “Organism, effect (morphology, biofilm and growth disruption)” value (E. faecalis) was “E. faecalis (C)” and the “Organism, effect (morphology, biofilm and growth disruption)” value (MRSA) was “MRSA (C)”. For the same substance, the “Organism, effect (morphology, biofilm and growth disruption)” value (P. aeruginosa) was “P. aeruginosa (H)”, the “Organism, effect (morphology, biofilm and growth disruption)” value (S. epidermidis) was “S. epidermidis (C)” and the “Organism, effect (morphology, biofilm and growth disruption)” value (S. pneumoniae) was “S. pneumoniae (M)”.
“PF-541 (RRNLNSPNIKTRKRALKIIKQHQRSK; Peptide with targeting and/or antimicrobial activity)” was tested, and the “Organism, effect (morphology, biofilm and growth disruption)” value (E. coli) was “E. coli (H)” and the “Organism, effect (morphology, biofilm and growth disruption)” value (S. pneumoniae) was “S. pneumoniae (H)”.
For “PF-561 (ESLEADVQAELDTEAAKYPALPASF; Peptide with targeting and/or antimicrobial activity)”, the “Organism, effect (morphology, biofilm and growth disruption)” value (B. subtilis) was “B. subtilis (D)” and the “Organism, effect (morphology, biofilm and growth disruption)” value (MRSA) was “MRSA (M)”.
With “PF-565 (RAEAEAQRQAEADAKRKAEEAARL; Peptide with targeting and/or antimicrobial activity)” the “Organism, effect (morphology, biofilm and growth disruption)” value (B. subtilis) was “B. subtilis (D)” and the “Organism, effect (morphology, biofilm and growth disruption)” value (MRSA) was “MRSA (C)”.
In the case of “PF-571 (SDLLYYPNENREDSPAGVVKEVKE; Peptide with targeting and/or antimicrobial activity)”, the “Organism, effect (morphology, biofilm and growth disruption)” value (B. subtilis) is reported as “B. subtilis (D)”.
For “PF-574 (LVKSGKLESPYEHSEHLTLSQEKGLE; Peptide with targeting and/or antimicrobial activity)”, the “Organism, effect (morphology, biofilm and growth disruption)” value (B. subtilis) was “B. subtilis (D)”.
For “PF-581 (WTARARR; Peptide with targeting and/or antimicrobial activity)”, the “Organism, effect (morphology, biofilm and growth disruption)” value (C. jejuni) was “C. jejuni (A)”, the “Organism, effect (morphology, biofilm and growth disruption)” value (E. faecalis) was “E. faecalis (A)” and the “Organism, effect (morphology, biofilm and growth disruption)” value (MRSA) was “MRSA (A)”. For the same substance, the “Organism, effect (morphology, biofilm and growth disruption)” value (S. pneumoniae) was “S. pneumoniae (A)”.
